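Test compounds were applied to cells in 96-well plates for 48 hours at 5 doses. Here, GI50 denotes the concentration required for 50% inhibition of growth. TGI marks complete inhibition of growth.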
Assays:
Assay in all cases: NCI-60 cell line screen, 48 h
MDA-MB-468 breast = system: MDA-MB-468 breast
MALME-3M melanoma = system: MALME-3M melanoma
HCT-15 colon = system: HCT-15 colon
SW-620 colon = system: SW-620 colon
KM12 colon = system: KM12 colon
SF-268 CNS = system: SF-268 CNS
HL-60(TB) leukemia = system: HL-60(TB) leukemia
HT29 colon = system: HT29 colon
T-47D breast = system: T-47D breast
A549 NSCLC = system: A549 NSCLC
UO-31 renal = system: UO-31 renal
SNB-19 CNS = system: SNB-19 CNS
786-0 renal = system: 786-0 renal
SNB-75 CNS = system: SNB-75 CNS
PC-3 prostate = system: PC-3 prostate
MOLT-4 leukemia = system: MOLT-4 leukemia
SR leukemia = system: SR leukemia
LOX IMVI melanoma = system: LOX IMVI melanoma
RPMI-8226 leukemia = system: RPMI-8226 leukemia
A498 renal = system: A498 renal
OVCAR-5 ovarian = system: OVCAR-5 ovarian
HS 578T breast = system: HS 578T breast
OVCAR-3 ovarian = system: OVCAR-3 ovarian
HCC-2998 colon = system: HCC-2998 colon
SK-MEL-2 melanoma = system: SK-MEL-2 melanoma
SK-MEL-28 melanoma = system: SK-MEL-28 melanoma
DU-145 prostate = system: DU-145 prostate
SK-OV-3 ovarian = system: SK-OV-3 ovarian
MDA-MB-231 breast = system: MDA-MB-231 breast
ACHN renal = system: ACHN renal
UACC-257 melanoma = system: UACC-257 melanoma
EKVX NSCLC = system: EKVX NSCLC
M14 melanoma = system: M14 melanoma
BT-549 breast = system: BT-549 breast
RXF 393 renal = system: RXF 393 renal
U251 CNS = system: U251 CNS
HOP-92 NSCLC = system: HOP-92 NSCLC
COLO 205 colon = system: COLO 205 colon
NCI-H460 lung = system: NCI-H460 lung
K-562 leukemia = system: K-562 leukemia
SN12C renal = system: SN12C renal
UACC-62 melanoma = system: UACC-62 melanoma
IGROV1 ovarian = system: IGROV1 ovarian
TK-10 renal = system: TK-10 renal
MCF7 breast = system: MCF7 breast
MDA-MB-435 = system: MDA-MB-435
HOP-62 NSCLC = system: HOP-62 NSCLC
NCI-H522 lung = system: NCI-H522 lung
SF-295 CNS = system: SF-295 CNS
CCRF-CEM leukemia = system: CCRF-CEM leukemia
OVCAR-8 ovarian = system: OVCAR-8 ovarian
HCT-116 colon = system: HCT-116 colon
SK-MEL-5 melanoma = system: SK-MEL-5 melanoma
NCI-H226 lung = system: NCI-H226 lung
SF-539 CNS = system: SF-539 CNS
NCI-H23 lung = system: NCI-H23 lung

O=C1C=CC(=CC=C2N(Cc3ccc4ccccc4c3)c3ccccc3N2Cc2ccc3ccccc3c2)C=C1
GI50 (MDA-MB-468 breast): 399 nM
TGI (MDA-MB-468 breast): 1490 nM
GI50 (MALME-3M melanoma): 1410 nM
TGI (MALME-3M melanoma): 3200 nM
GI50 (HCT-15 colon): 3740 nM
TGI (HCT-15 colon): > 100000 nM
GI50 (SW-620 colon): 1260 nM
TGI (SW-620 colon): 2660 nM
GI50 (KM12 colon): 1520 nM
TGI (KM12 colon): 3750 nM
GI50 (SF-268 CNS): 2780 nM
TGI (SF-268 CNS): 8810 nM
GI50 (HL-60(TB) leukemia): 385 nM
TGI (HL-60(TB) leukemia): 1980 nM
GI50 (HT29 colon): 1880 nM
TGI (HT29 colon): 5600 nM
GI50 (T-47D breast): 1330 nM
TGI (T-47D breast): 4750 nM
GI50 (A549 NSCLC): 1530 nM
TGI (A549 NSCLC): > 100000 nM
GI50 (UO-31 renal): > 20700 nM
TGI (UO-31 renal): > 100000 nM
GI50 (SNB-19 CNS): 920 nM
TGI (SNB-19 CNS): 2340 nM
GI50 (786-0 renal): 1580 nM
TGI (786-0 renal): 3040 nM
GI50 (SNB-75 CNS): 1180 nM
TGI (SNB-75 CNS): 3180 nM
GI50 (PC-3 prostate): 956 nM
TGI (PC-3 prostate): 3100 nM
GI50 (MOLT-4 leukemia): 1480 nM
TGI (MOLT-4 leukemia): 4320 nM
GI50 (SR leukemia): 902 nM
TGI (SR leukemia): 3620 nM
GI50 (LOX IMVI melanoma): 887 nM
TGI (LOX IMVI melanoma): 2230 nM
GI50 (RPMI-8226 leukemia): 428 nM
TGI (RPMI-8226 leukemia): 2180 nM
GI50 (A498 renal): 2890 nM
TGI (A498 renal): > 26900 nM
GI50 (OVCAR-5 ovarian): 1720 nM
TGI (OVCAR-5 ovarian): 4410 nM
GI50 (HS 578T breast): 1470 nM
TGI (HS 578T breast): 4080 nM
GI50 (OVCAR-3 ovarian): 904 nM
TGI (OVCAR-3 ovarian): 2310 nM
GI50 (HCC-2998 colon): 1500 nM
TGI (HCC-2998 colon): 3010 nM
GI50 (SK-MEL-2 melanoma): 1580 nM
TGI (SK-MEL-2 melanoma): 3010 nM
GI50 (SK-MEL-28 melanoma): 1290 nM
TGI (SK-MEL-28 melanoma): 2840 nM
GI50 (DU-145 prostate): 2670 nM
TGI (DU-145 prostate): > 100000 nM
GI50 (SK-OV-3 ovarian): 1720 nM
TGI (SK-OV-3 ovarian): 5260 nM
GI50 (MDA-MB-231 breast): 1400 nM
TGI (MDA-MB-231 breast): 2760 nM
GI50 (ACHN renal): 3590 nM
TGI (ACHN renal): > 100000 nM
GI50 (UACC-257 melanoma): 1680 nM
TGI (UACC-257 melanoma): 3610 nM
GI50 (EKVX NSCLC): 1260 nM
TGI (EKVX NSCLC): 3940 nM
GI50 (M14 melanoma): 999 nM
TGI (M14 melanoma): 2520 nM
GI50 (BT-549 breast): 1260 nM
TGI (BT-549 breast): 3420 nM
GI50 (RXF 393 renal): 1330 nM
TGI (RXF 393 renal): 2870 nM
GI50 (U251 CNS): 520 nM
TGI (U251 CNS): 1780 nM
GI50 (HOP-92 NSCLC): 883 nM
TGI (HOP-92 NSCLC): 2500 nM
GI50 (COLO 205 colon): 1290 nM
TGI (COLO 205 colon): 2740 nM
GI50 (NCI-H460 lung): 654 nM
TGI (NCI-H460 lung): 1960 nM
GI50 (K-562 leukemia): 514 nM
GI50 (SN12C renal): 1510 nM
TGI (SN12C renal): 4680 nM
GI50 (UACC-62 melanoma): 1400 nM
TGI (UACC-62 melanoma): 2820 nM
GI50 (IGROV1 ovarian): 1230 nM
TGI (IGROV1 ovarian): 2570 nM
GI50 (TK-10 renal): 2060 nM
TGI (TK-10 renal): 5270 nM
GI50 (MCF7 breast): 1190 nM
TGI (MCF7 breast): 2540 nM
GI50 (MDA-MB-435): 1360 nM
TGI (MDA-MB-435): 2690 nM
GI50 (HOP-62 NSCLC): 2210 nM
GI50 (NCI-H522 lung): 1480 nM
TGI (NCI-H522 lung): 3030 nM
GI50 (SF-295 CNS): 1290 nM
TGI (SF-295 CNS): 2870 nM
GI50 (CCRF-CEM leukemia): 1460 nM
TGI (CCRF-CEM leukemia): 6220 nM
GI50 (OVCAR-8 ovarian): 971 nM
TGI (OVCAR-8 ovarian): 2350 nM
GI50 (HCT-116 colon): 971 nM
TGI (HCT-116 colon): 3160 nM
GI50 (SK-MEL-5 melanoma): 697 nM
TGI (SK-MEL-5 melanoma): 1690 nM
GI50 (NCI-H226 lung): 1390 nM
TGI (NCI-H226 lung): 2980 nM
GI50 (SF-539 CNS): 1730 nM
TGI (SF-539 CNS): 4070 nM
GI50 (NCI-H23 lung): 1250 nM
TGI (NCI-H23 lung): 2700 nM

From PubChem BioAssay (NCI)
